What was measured:
Type in all cases: cell-based
[1] = system: U118 glioblastoma cell line; assay: In-vitro cell survival assay (Alamar blue), U118; conditions: U118, one day after compound addition
Procedure: (§1) Five tumor-derived cell lines were treated with the ROS inhibitor compounds and cell survival was monitored to determine the cancer prohibition effects of the compounds. The cell lines included HeLa, a cervical cancer cell line, and four glioblastoma cell lines U138, U87, LN18, and U118. The basic protocol for the in-vitro cell survival assay is the same for all five cell lines. In particular, the cells were seeded in 96-well plates at 2-5×10^3 cells/well (cell line dependent) in culture medium. The cells were grown for 2 days before the compounds were dissolved in DMSO and added to final concentrations of 100 uM, 10 uM, or 1 uM (DMSO final concentration 0.5%). The cell culture was then assayed one day after the addition of the compounds. The assay used Alamar blue as a redox-sensitive dye that interrogates mitochondrial fitness of cells, and these assays provided a readout for cell proliferation and viability. The raw values were normalized to an average of several vehicle control wells and are presented as percent decrease in proliferation/viability, which is converted to half maximal effective concentration (EC50) values.

[2] = system: U87 glioblastoma cell line; assay: In-vitro cell survival assay (Alamar blue), U87; conditions: U87, one day after compound addition
Procedure: as §1

[3] = system: LN18 glioblastoma cell line; assay: In-vitro cell survival assay (Alamar blue), LN18; conditions: LN18, one day after compound addition
Procedure: as §1

[4] = system: HeLa cervical cancer cell line; assay: In-vitro cell survival assay (Alamar blue), HeLa; conditions: one day after compound addition
Procedure: as §1

[5] = system: U138 glioblastoma cell line; assay: In-vitro cell survival assay (Alamar blue), U138; conditions: U138, one day after compound addition
Procedure: as §1

SMILES	EC50 ([1]; 24 h) [µM]	EC50 ([2]; 24 h) [µM]	EC50 ([3]; Homo sapiens, LN-18, 24 h) [µM]	EC50 ([4]; Homo sapiens, 24 h) [µM]	EC50 ([5]; 24 h) [µM]	EC50 [1] [µM]	EC50 [2] [µM]	EC50 [3] [µM]	EC50 [4] [µM]	EC50 [5] [µM]
CN1CCN(C(=O)c2cccc(Nc3nccc(Nc4ccc5ncsc5c4)n3)c2)CC1 [drawing 415]	39	22	14	11	32					
O=C(NCCc1ccccc1)c1cccc(Nc2nccc(Nc3ccc4ncsc4c3)n2)c1 [drawing 418]	24	13	11	15	38					
Cc1ccc(CNC(=O)c2cccc(Nc3nccc(Nc4ccc5ncsc5c4)n3)c2)o1 [drawing 419]	17	16	7	10	19					
COc1cccc(Nc2nc(N)c(C(=O)c3c(C)[nH]c4ccccc34)s2)c1 [drawing 384]	16	15	10	72	19					
COc1cccc(Nc2cc(Nc3cccc(C(=O)N4CCN(C(C)=O)CC4)c3)nc(N)n2)c1 [drawing 377]	91	> 100	64	> 100	> 100					
O=c1c(O)c(-c2ccc(O)c(O)c2)oc2cc(O)cc(O)c12 [drawing 406]	33	36	24	21	> 100					
Nc1nc(Nc2ccc(C(=O)NCCc3ccncc3)cc2)cc(Nc2ccc3ncsc3c2)n1 [drawing 417]	> 100	17	> 100	22	33					
O=c1[nH][nH]c2nnc(-c3ccccc3)c(-c3ccccc3)c12 [drawing 394]						> 100	28	> 100	> 100	> 100
O=C(COc1ccccc1)NCC(c1cccs1)S(=O)(=O)c1ccc(Cl)cc1 (stereo not drawn) [drawing 427]	45	36	83	> 100	> 100					
O=C(NCC(c1cccs1)S(=O)(=O)c1ccc(F)cc1)c1ccccc1 (stereo not drawn) [drawing 434]	54	30	21	77	> 100					
O=C(NCCN1CCOCC1)c1cccc(Nc2nccc(Nc3ccc4ncsc4c3)n2)c1 [drawing 411]	> 100	18	> 100	19	> 100					
O=C(NCc1ccc(F)cc1)c1cccc(Nc2nccc(Nc3ccc4ncsc4c3)n2)c1 [drawing 423]	24	11	9	6	18					
Cc1cccc(Nc2nccc(Nc3cccc(C(=O)NCCN4CCOCC4)c3)n2)c1 [drawing 381]	17	36	11	43	54					
O=C(c1cccc(Nc2nccc(Nc3ccc4ncsc4c3)n2)c1)N1CCCCCC1 [drawing 421]	81	25	9	9	> 100					
O=C(NCc1ccco1)c1cccc(Nc2nccc(Nc3ccc4ncsc4c3)n2)c1 [drawing 376]	18	21	10	10	35					
O=C(c1cccc(Nc2nccc(Nc3ccc4ncsc4c3)n2)c1)N1CCCCC1 [drawing 438]	52	20	12	19	> 100					
O=C(NC[C@H]1Cc2cc(-c3cncnc3)cc(Cl)c2O1)c1cccc(Cn2cccn2)c1	> 100	> 100	> 100	> 100	> 100					
NC(=O)c1c(NC(=O)Nc2ccccc2)sc2c1CCCC2 [drawing 401]	34	80	38	16	27					
O=C1c2ccccc2C(=O)N1C[C@H](O)Cn1nc(-c2cccs2)c2ccccc2c1=O [drawing 405]	> 100	> 100	> 100	> 100	> 100					
Cc1cc(C)n(-c2cccc(C(=O)NC[C@H]3Cc4cc(Cl)cc(-c5cnccn5)c4O3)c2)n1	96	94	64	70	> 100					
O=C1NN=C(c2ccccc2)/C1=C1\OC(c2ccccc2)=CS1 [drawing 392]	27	37	17	23	> 100					

SMILES	EC50 ([1]; 24 h) [µM]	EC50 ([2]; 24 h) [µM]	EC50 ([3]; Homo sapiens, LN-18, 24 h) [µM]	EC50 ([4]; Homo sapiens, 24 h) [µM]	EC50 ([5]; 24 h) [µM]	EC50 [1] [µM]	EC50 [2] [µM]	EC50 [3] [µM]	EC50 [4] [µM]	EC50 [5] [µM]
Nc1nc(N)n(-c2ccccc2)/c(=N/c2ccccc2)n1 [drawing 395]	> 100	33	> 100	> 100	> 100					
Cn1c(=O)c2c(nc3n(CCO)c(-c4ccccc4)cn23)n(C)c1=O [drawing 402]	> 100	> 100	> 100	> 100	> 100					
Cc1cccc(Nc2nccc(Nc3cccc(C(=O)NCCCN4CCOCC4)c3)n2)c1 [drawing 416]	> 100	99	40	34	76					
CN(C)CC(C)(C)CNC(=O)c1cccc(Nc2nccc(Nc3ccc4ncsc4c3)n2)c1 [drawing 413]	76	32	9	24	73					
CC1=NNC(=O)/C1=C\c1cn(-c2ccccc2)nc1-c1ccccc1 [drawing 403]	7	8	12	20	8					
Nc1nc(Nc2ccc(C(=O)NCc3ccco3)cc2)cc(Nc2ccc3ncsc3c2)n1 [drawing 375]	27	32	18	44	> 100					
NS(=O)(=O)c1ccc(CCNC(=O)c2cc(-c3cccs3)nc3ccccc23)cc1 [drawing 358]	29	> 100	25	> 100	> 100					
O=C(c1ccccc1)n1nc(-c2ccco2)nc1NCc1ccccc1	> 100	> 100	> 100	> 100	> 100					
O=C(NCc1cccs1)c1cccc(Nc2nccc(Nc3ccc4ncsc4c3)n2)c1 [drawing 410]	23	25	11	9	26					
CC(=O)N[C@@H]1CCN(C(=O)c2cccc(Nc3cc(N(C)c4cccc(C)c4)ncn3)c2)C1 [drawing 378]	> 100	> 100	> 100	> 100	> 100					
O=C(NC[C@@H]1CCCO1)c1cccc(Nc2nccc(Nc3ccc4ncsc4c3)n2)c1	> 100	16	15	11	> 100					
O=C(NCCc1ccc(F)cc1)c1cccc(Nc2nccc(Nc3ccc4ncsc4c3)n2)c1 [drawing 372]	9	10	6	5	8					
CC(C)(CO)NC(=O)c1cccc(Nc2nccc(Nc3ccc4ncsc4c3)n2)c1 [drawing 408]	18	17	10	12	16					
Cc1cccc(Nc2nccc(Nc3cccc(C(=O)NCc4ccccc4F)c3)n2)c1 [drawing 412]	16	11	6	9	34					
O=c1cc(Oc2ccccc2)c(-c2nc[nH]n2)nn1-c1ccccc1 [drawing 365]						> 100	26	> 100	> 100	> 100
Cc1cccc(Nc2nccc(Nc3cccc(C(=O)NC4CCN(C)CC4)c3)n2)c1 [drawing 422]	60	18	5	25	20					
O=C(NNc1cc(C(F)(F)F)ccc1Cl)c1cccnc1Oc1ccccc1 [drawing 390]	> 100	96	58	59	> 100					
Cc1cccc(Nc2nccc(Nc3cccc(C(=O)N(C)CCCN(C)C)c3)n2)c1 [drawing 425]	> 100	46	89	39	> 100					
O=C(NCC1CCCCC1)c1cccc(Nc2nccc(Nc3ccc4ncsc4c3)n2)c1 [drawing 407]	> 100	33	87	> 100	> 100					
Cc1cc(C)c(NC(=O)c2cc3ccccc3c(=O)s2)c(-c2cc(C)[nH]n2)c1 [drawing 400]						> 100	> 100	> 100	> 100	> 100
FC(F)(F)c1cc(-n2c(Cc3cccc4ccccc34)n[nH]c2=S)cc(C(F)(F)F)c1 [drawing 397]						> 100	20	> 100	62	> 100
